Test results from PubChem BioAssay AID1259408 (Genetic Toxicology Data Bank (GENE-TOX), 2018).
Active and inactive are the calls of the source. No rule for the calls is given here.

Test system: GENE-TOX genotoxicity assays, various organisms and cells
Experiment: GENE-TOX mutagenicity studies
Conditions: for call: Assay Type: In vivo carcinogenicity studies, Assay Code: CCG+
From the text: GENE-TOX provides genetic toxicology (mutagenicity) test data from expert peer review of open scientific literature for more than 3,000 chemicals from the United States Environmental Protection Agency (EPA). GENE-TOX was established to select assay systems for evaluation, review data in the scientific literature, and recommend proper testing protocols and evaluation procedures for these systems.
GENE-TOX covers the years 1991 - 1998. It is no longer updated.
This is an archive assay for GENE-TOX mutagenicity studies.

[1] = Species/Cell Type: Nonhuman, Assay Type: Sister-chromatid exchange (SCE) in vitro, Assay Code: SC2+, Evaluation Type: Evaluation B (Post-1980)
[2] = Species/Cell Type: Escherichia coli WP2, Assay Type: Tryptophan reverse gene mutation, Assay Code: WP2+, Evaluation Type: Evaluation A (Pre-1980)
[3] = Species/Cell Type: Salmonella typhimurium (one or more of the five standard strains: TA98, TA100, TA1535, TA1537, and TA1538), Assay Type: Histidine reverse gene mutation, Ames assay, Assay Code: SAL+, Evaluation Type: Evaluation A (Pre-1980)
[4] = Species/Cell Type: Nonhuman, Evaluation Type: Evaluation A (Pre-1980)

Which mutagenic call [1] does the source give for CCCCOC(=O)c1ccccc1C(=O)OCCCC here?
The mutagenic call was “active; positive”.

And the mutagenic call (Species/Cell Type: Nonhuman, Assay Type: Sister-chromatid exchange (SCE) in vitro, Assay Code: SC2T, Evaluation Type: Evaluation A (Pre-1980))?
The mutagenic call was “no conclusion”.

And the mutagenic call (Species/Cell Type: Saccharomyces cerevisiae, Assay Type: Reverse gene mutation, Assay Code: YER-*, Activation: With metabolic activation, Evaluation Type: Evaluation A (Pre-1980))?
The mutagenic call was “inactive; negative”.

What does the source list for CC(C)OC(=O)Nc1cccc(Cl)c1?
mutagenic call (Species/Cell Type: Hordeum vulgare (barley), Assay Type: Chromosome aberrations, Assay Code: HOC+, Evaluation Type: Evaluation A (Pre-1980)): active; positive; mutagenic call (Species/Cell Type: Mammalian polychromatic erythrocytes, Assay Type: Micronucleus test, chromosome aberrations, Assay Code: MNTT, Evaluation Type: Evaluation A (Pre-1980)): no conclusion; mutagenic call (Species/Cell Type: Mouse, Sex: Male, Assay Type: Sperm morphology, Assay Code: SPI-, Evaluation Type: Evaluation A (Pre-1980)): inactive; negative; mutagenic call [1]: active; positive

Which mutagenic call (Species/Cell Type: Bacillus subtilis (H17 vs M45T), Assay Type: Rec-assay, spot test, DNA effects (bacterial DNA repair), Assay Code: REX+, Evaluation Type: Evaluation A (Pre-1980)) does the source give for CC(C)Oc1ccccc1OC(=O)N(C)N=O here?
Its mutagenic call is “active; positive”.

And the mutagenic call [2]?
The mutagenic call was “active; positive”.

And the mutagenic call (Species/Cell Type: Saccharomyces cerevisiae, Assay Type: Mitotic recombination or gene conversion, Assay Code: YEC+, Evaluation Type: Evaluation A (Pre-1980))?
The mutagenic call was “active; positive”.

And the mutagenic call [3]?
The mutagenic call was “active; positive”.

Which mutagenic call (Species/Cell Type: Escherichia coli WP2 UVRA, Assay Type: Tryptophan reverse gene mutation, Assay Code: WPU-, Evaluation Type: Evaluation A (Pre-1980)) does the source give for COc1cccc(C2CO2)c1 (stereo unspecified) here?
The mutagenic call was “inactive; negative”.

With O=C(O)CN(CC(=O)O)CC(=O)O as the molecule, how does the mutagenic call (Species/Cell Type: Drosophila melanogaster, Assay Type: Sex-linked recessive lethal gene mutation, Assay Code: SRL-, Evaluation Type: Evaluation A (Pre-1980)) read?
The mutagenic call was “inactive; negative”.

What about the mutagenic call (Species/Cell Type: Mouse, Sex: Male, Assay Type: Heritable translocation test, chromosome aberrations, Assay Code: HTT-, Evaluation Type: Evaluation A (Pre-1980)) of the same molecule?
Its mutagenic call is “inactive; negative”.

And the call [4]?
Its call is “active; positive”.

What about the mutagenic call (Species/Cell Type: Nonhuman, Assay Type: Sister-chromatid exchange (SCE) in vitro, Assay Code: SC2T, Evaluation Type: Evaluation B (Post-1980)) of the same molecule?
Its mutagenic call is “no conclusion”.

And the mutagenic call (Species/Cell Type: Salmonella typhimurium (one or more of the five standard strains: TA98, TA100, TA1535, TA1537, and TA1538), Assay Type: Histidine reverse gene mutation, Ames assay, Assay Code: SALT, Evaluation Type: Evaluation B (Post-1980))?
Its mutagenic call is “no conclusion”.

What about the mutagenic call (Species/Cell Type: Vicia faba, Assay Type: Chromosome aberrations, Assay Code: VIC+, Evaluation Type: Evaluation A (Pre-1980)) of the same molecule?
Its mutagenic call is “active; positive”.

With CCCCSC(=Nc1cccnc1)SCc1ccc(C(C)(C)C)cc1 as the molecule, how does the mutagenic call (Species/Cell Type: Salmonella typhimurium, Assay Type: Forward and reverse gene mutation, host-mediated assay, Assay Code: HMA-, Evaluation Type: Evaluation A (Pre-1980)) read?
Its mutagenic call is “inactive; negative”.

For O=c1ccc2c(cc(O)c3c4ccccc4nnc23)o1, which mutagenic call (Species/Cell Type: Mammalian polychromatic erythrocytes, Assay Type: Micronucleus test, chromosome aberrations, Assay Code: MNTT, Evaluation Type: Evaluation B (Post-1980)) is on record?
The mutagenic call was “no conclusion”.

How did the mutagenic call (Species/Cell Type: Vicia faba, Assay Type: Chromosome aberrations, Assay Code: VIC+D, Dose Response: With dose response, Evaluation Type: Evaluation A (Pre-1980)) turn out when Nc1ncnc2c1ncn2[C@@H]1O[C@H](CO)[C@@H](O)[C@@H]1O was run?
Its mutagenic call is “active; positive”.

Which results are given for Cc1ncc(CO)c(C(=O)O)c1O?
mutagenic call (Species/Cell Type: Human lymphocytes, Assay Type: Sister-chromatid exchange (SCE) in vitro, Assay Code: SCLT, Evaluation Type: Evaluation B (Post-1980)): no conclusion; mutagenic call (Species/Cell Type: Human, Assay Type: Sister-chromatid exchange (SCE) in vitro, Assay Code: SC1T, Evaluation Type: Evaluation B (Post-1980)): no conclusion

What does the source list for [N-]=[N+]=CC(=O)OC[C@H](N)C(=O)O?
mutagenic call [2]: active; positive; mutagenic call (Species/Cell Type: Escherichia coli polA (W3119 vs P3478), Assay Type: Rec-assay, DNA effects (bacterial DNA repair), Assay Code: RE1+, Evaluation Type: Evaluation A (Pre-1980)): active; positive; call [4]: active; positive; mutagenic call (Species/Cell Type: Nonhuman, Assay Type: Sister-chromatid exchange (SCE) in vitro, Assay Code: SC2+D, Dose Response: With dose response, Evaluation Type: Evaluation B (Post-1980)): active; positive; mutagenic call [3]: active; positive; mutagenic call (Species/Cell Type: Syrian hamster embryo (SHE) cells, Assay Type: Cell transformation, clonal assay, Assay Code: CTC+, Evaluation Type: Evaluation A (Pre-1980)): active; positive

[O]=[Zr] was tested. Which mutagenic call (Species/Cell Type: Nonhuman, Assay Type: Sister-chromatid exchange (SCE) in vitro, Assay Code: SC2-, Evaluation Type: Evaluation B (Post-1980)) did it give?
Its mutagenic call is “inactive; negative”.

How did the mutagenic call (Species/Cell Type: Salmonella typhimurium (one or more of the five standard strains: TA98, TA100, TA1535, TA1537, and TA1538), Assay Type: Histidine reverse gene mutation, Ames assay, Assay Code: SAL+*, Activation: With metabolic activation, Evaluation Type: Evaluation A (Pre-1980)) turn out when Cc1cnc2ccccc2c1 was run?
Its mutagenic call is “active; positive”.
